According to US20170020909A1, “METHODS OF TREATING GLAUCOMA USING AMP-ACTIVATED PROTEIN KINASE (AMPK) ACTIVATORS” (Massachusetts Eye and Ear Infirmary, priority 2014, published 2017):
“Also recorded” adds a separate entry of the source.

Legend:
RhoA = assay: Immunoblot of p-RhoA (Ser188)/total RhoA in human TM cell lysates; type: cell-based; conditions: 0.5 mM AICAR
Method: Primary human trabecular meshwork (TM) cells were isolated, in accordance with the Declaration of Helsinki, and maintained in culture as described previously.^63 Independent primary human TM cell lines were generated from donors ranging in age from 35 to 72 years and no known history of ocular disease. Cell cultures were maintained, unless otherwise stated, in Dulbecco's modified eagle medium (Life Technologies, Grand Island, N.Y.) containing 20% fetal bovine serum, 1% L-glutamine (2 mM), and gentamicin (0.1 mg/ml) at 37° C. in a 10% CO2 atmosphere. Only TM cells from third through fifth passage were used. […]
At the conclusion of each experiment for matricellular and ECM protein detection, conditioned media (CM) from TM cell cultures was harvested and centrifuged at 5000 rpm for 10 minutes at 4° C. The supernatant was then concentrated (Amicon Ultra-4 Filter Unit, 10 kDa; Millipore, Milford, Mass.), and protein content quantified using the DC Protein Assay kit adhering to manufacturer's protocols (Bio-Rad, Hercules, Calif.). […] Samples were then centrifuged at 14,000 rpm for 15 minutes at 4° C. and protein content quantified. […] The membranes were then washed three times with 1×TBS-T, scanned, and integrated band intensities were calculated using an infrared imaging system (Odyssey; Li-Cor, Lincoln, Nebr.). […]

[1] = tested on: primary cultured human TM cells; assay: Phalloidin (F-actin) immunofluorescent staining and morphology of primary cultured human TM cells; type: cell-based
Method: FIG. 6. […] Human TM cells were plated on 8-well slides, treated as in FIG. 3, and then stained with phalloidin (F-actin) antibody. Nuclei were stained with DAPI. Representative immunofluorescent images shown above (n=3). Scale bar, 50 μm. Primary human trabecular meshwork (TM) cells were isolated, in accordance with the Declaration of Helsinki, and maintained in culture as described previously.^63 Independent primary human TM cell lines were generated from donors ranging in age from 35 to 72 years and no known history of ocular disease. Cell cultures were maintained, unless otherwise stated, in Dulbecco's modified eagle medium (Life Technologies, Grand Island, N.Y.) containing 20% fetal bovine serum, 1% L-glutamine (2 mM), and gentamicin (0.1 mg/ml) at 37° C. in a 10% CO2 atmosphere. Only TM cells from third through fifth passage were used. All experiments were performed using at least three different primary human TM cell lines. TM cells in 8 well-slides were fixed for 30 minutes with 4% paraformaldehyde in PBS (pH 7.4) at 4° C., then washed in PBS for 10 minutes twice at RT. Cells were permeabilized with 0.2% Triton-100 in PBS for 5 min and then washed in PBS and blocked in 3% bovine serum albumin (BSA) in PBS for 1 hr at RT. […] Nuclei were stained with TO-DAPI (Invitrogen), and labeled tissues were analyzed by fluorescent light microscopy using a Zeiss Observer3.1.

Structure (SMILES): NC(=O)c1ncn([C@@H]2O[C@H](CO)[C@@H](O)[C@H]2O)c1N [AICAR, 5-Aminoimidazole-4-carboxamide riboside]
- duration of the phospho-total RhoA ratio increase (RhoA; through 24 hours): remained statistically significant through 24 hours
- increase of phospho-total RhoA ratio (Ser188) (RhoA; within one hour, human TM cells): approximately 10 fold
- cell morphology ([1]; 0.5 mM AICAR, cultured TM cells (data not shown)): narrower cell bodies
- F-actin staining and actin stress fiber formation ([1]; AICAR, basal and TGF-β2 stimulatory conditions): decreased F-actin staining and actin stress fiber formation; also recorded: decreased F-actin cytoskeletal staining, and fewer actin stress fibers
